Patent US20250109140A1, “5-[5-(PIPERIDIN-4-YL)THIENO[3,2-C]PYRAZOL-2-YL]INDAZOLE DERIVATIVES AND RELATED COMPOUNDS AS MODULATORS FOR SPLICING NUCLEIC ACIDS AND FOR THE TREATMENT OF PROLIFERATIVE DISEASES” (REMIX THERAPUTICS INC., priority 2022, published 2025)
pEC50, pIC50: −log10 of the molar value. Where a name gives a salt, the structure may show the parent alone. Read-outs that look alike come from different tables or passages of the source.

Columns and labels:
HiBiT-tagged MYB protein = experiment: HiBiT protein abundance assay, MYB (K562 HiBiT knock-in cells); type: cell-based, human; conditions: 24 hours treatment
Procedure, shortened: (§1)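 Luminescence from the Nano-Glo HiBiT lytic reagent measured tagged protein remaining in knock-in K562 cells after 24 h compound exposure (top dose 10 µM final, 3-fold, 10 points). Responses normalized between parental K562 and DMSO-treated lines were fit by four-parameter logistic to interpolate the 50% concentration.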

HTT mRNA = experiment: Splicing RT-qPCR assay, HTT canonical (CJ) and alternative (AJ) junction mRNA; type: cell-based; conditions: Homo sapiens; for pEC50: AC50 = 50% response in AJ mRNA increase
Procedure, shortened: (§2)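 A673/K562; 11-pt 3-fold dil., top 10 uM final, ≤0.25% DMSO; 24 h, 37 °C, 5% CO2. Lysis, then RT-qPCR of CJ/AJ isoforms, ≥duplicate. ΔCt vs housekeeper (GAPDH/GUSB/PPIA), ΔΔCt vs DMSO, RQ = 2^(−ΔΔCt), expressed as % response.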

SMN2 mRNA = experiment: Splicing RT-qPCR gene panel, SMN2 canonical junction (CJ) mRNA; type: cell-based; conditions: Homo sapiens; Table 8; larger gene panel, decrease in CJ mRNA levels
Procedure, shortened: as §2

HiBiT-tagged HTT protein = experiment: HiBiT protein abundance assay, HTT (K562 HiBiT knock-in cells); type: cell-based, human; conditions: 24 hours treatment
Procedure, shortened: as §1

[1] = tested on: K562 (human chronic myelogenous leukemia) cells; experiment: Cell viability, Cell Titer Glo 2.0 assay, K562 cells; type: cell-based; conditions: 72 hours
Procedure, shortened: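 Luminescent Cell Titer Glo 2.0 readout after 72 h exposure (37° C, 5% CO2), medium-only wells as blank. Cells plated 500/well in IMDM with 10% FBS; test compounds diluted from DMSO series 1:100 into medium, 0.1% DMSO final.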

Target C = experiment: HiBiT protein abundance assay, Target C (K562 HiBiT knock-in cells); type: cell-based, human; conditions: 24 hours treatment
Procedure, shortened: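 The readout was Nano-Glo HiBiT lytic luminescence after 24 h compound exposure at 37 °C, in 10000 K562 knock-in cells/well. Compounds ran as 10-point, 3-fold series, top final […], ≤0.25% DMSO. Responses were scaled between parental K562 and DMSO-treated controls, and IC50 was interpolated at 50% from four-parameter logistic curves.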

Target C mRNA = experiment: Splicing RT-qPCR gene panel, Target C canonical junction (CJ) mRNA; type: cell-based; conditions: Homo sapiens; Table 8; larger gene panel, decrease in CJ mRNA levels
Procedure, shortened: as §2

MYB mRNA = experiment: Splicing RT-qPCR assay, MYB canonical (CJ) and alternative (AJ) junction mRNA; type: cell-based; conditions: Homo sapiens; for pEC50: AC50 = 50% response in AJ mRNA increase
Procedure, shortened: as §2

[2] = Table 7, RT-qPCR, A673 or K562 cells, 24 hours treatment
[3] = Table 7, IC50 = 50% response in CJ mRNA decrease, RT-qPCR, A673 or K562 cells, 24 hours treatment, read-out: HTT CJ
[4] = Table 8, larger gene panel, decrease in CJ mRNA levels, read-out: HTT CJ IC50
[5] = Table 7, IC50 = 50% response in CJ mRNA decrease, RT-qPCR, A673 or K562 cells, 24 hours treatment, read-out: MYB CJ
[6] = Table 8, larger gene panel, decrease in CJ mRNA levels, read-out: MYB CJ IC50

SMILES	pIC50 (HiBiT-tagged MYB protein)	pEC50 (HTT mRNA; [2])	pIC50 (HTT mRNA; [3])	pIC50 (HTT mRNA; [4])	pIC50 (SMN2 mRNA)	pIC50 (HiBiT-tagged HTT protein)	pIC50 [1]	pIC50 (Target C)	pIC50 (Target C mRNA)	pEC50 (MYB mRNA; [2])	pIC50 (MYB mRNA; [5])	pIC50 (MYB mRNA; [6])
Cn1cc2cc(-c3cc4cn([C@@H]5CCNC5)nc4s3)cc(F)c2n1 [Compound 160, (R)-5-(7-fluoro-2-methyl-2H-indazol-5-yl)-2-(pyrrolidin-3-yl)-2H-thieno[2,3-c]pyrazole hydrochloride]	5.00 to 6.00	5.00 to 6.00	5.00 to 6.00	5.00 to 6.00	5.00 to 6.00	5.00 to 6.00	5.00 to 6.00	< 5.00	< 5.00	5.00 to 6.00	5.00 to 6.00	5.00 to 6.00
Cc1c(O)c(-c2nc3cn(C4CCNCC4)nc3s2)cc2cn(C)nc12 [Compound 1108, 2,7-dimethyl-5-(2-(piperidin-4-yl)-2H-pyrazolo[4,3-d]thiazol-5-yl)-2H-indazol-6-ol]	> 7.00	> 7.00	> 7.00	> 7.00	> 7.00	5.00 to 6.00	6.00 to 7.00	5.00 to 6.00	> 7.00	> 7.00	> 7.00	> 7.00
Cn1cc2cc(-c3cc4cn(C5CCNCC5)nc4s3)c(F)cc2n1 [Compound 210]	6.00 to 7.00	> 7.00	> 7.00	> 7.00	> 7.00	> 7.00	6.00 to 7.00	6.00 to 7.00	6.00 to 7.00	6.00 to 7.00	6.00 to 7.00	6.00 to 7.00
Cc1cn2nc(-n3cc4sc(N5CC6(CN(C)C6)C5)cc4n3)cc(C)c2n1 [Compound 188, 2-(2-{2,8-dimethylimidazo[1,2-b]pyridazin-6-yl}thieno [3,2-c]pyrazol-5-yl)-6-methyl-2,6-diazaspiro [3.3]heptane]	5.00 to 6.00	5.00 to 6.00	6.00 to 7.00	5.00 to 6.00	6.00 to 7.00	5.00 to 6.00	5.00 to 6.00	5.00 to 6.00	5.00 to 6.00	5.00 to 6.00	5.00 to 6.00	5.00 to 6.00
Cc1cn2cc(-n3cc4cc(C5CCNCC5)sc4n3)cc(C)c2n1 [Compound 155]	6.00 to 7.00	6.00 to 7.00	6.00 to 7.00	6.00 to 7.00	> 7.00	> 7.00	6.00 to 7.00	6.00 to 7.00	5.00 to 6.00	5.00 to 6.00	5.00 to 6.00	5.00 to 6.00
Cc1cn2nc(-n3cc4sc(C5CCNCC5)cc4n3)cc(C)c2n1 [Compound 101, 4-(2-[2,8-dimethylimidazo[1,2-b]pyridazin-6-yl]thieno[3,2-c]pyrazol-5-yl)piperidine]	6.00 to 7.00	6.00 to 7.00	> 7.00	6.00 to 7.00	> 7.00	> 7.00	6.00 to 7.00	> 7.00	> 7.00	6.00 to 7.00	6.00 to 7.00	6.00 to 7.00
Cc1nc2c(F)cc(-n3cc4cc(C5CCNCC5)sc4n3)cc2o1 [Compound 157]	6.00 to 7.00	6.00 to 7.00	6.00 to 7.00	6.00 to 7.00	> 7.00	> 7.00	6.00 to 7.00	> 7.00	6.00 to 7.00	6.00 to 7.00	5.00 to 6.00	6.00 to 7.00
Cn1cc2cc(-c3cc4cn(C5CNC5)nc4s3)cc(F)c2n1 [Compound 184]	5.00 to 6.00	5.00 to 6.00	5.00 to 6.00	5.00 to 6.00	6.00 to 7.00	5.00 to 6.00	5.00 to 6.00	< 5.00	< 5.00	5.00 to 6.00	5.00 to 6.00	5.00 to 6.00
COc1c(-c2cc3cn(C4CCNCC4)nc3s2)cc(F)c2nn(C)cc12 [Compound 224]	< 5.00	< 5.00	< 5.00	< 5.00	< 5.00	< 5.00	< 5.00	< 5.00	< 5.00	< 5.00	< 5.00	< 5.00
Cc1cn2cc(-n3cc4sc(C5CCNCC5)cc4n3)nc2c(C)n1 [Compound 181]	5.00 to 6.00	5.00 to 6.00	5.00 to 6.00	5.00 to 6.00	5.00 to 6.00	5.00 to 6.00	5.00 to 6.00	< 5.00	< 5.00	< 5.00	< 5.00	< 5.00
Cn1cc2cc(-c3cc4cn([C@@H]5CCNC[C@H]5O)nc4s3)cc(F)c2n1 [Compound 273]	< 5.00	5.00 to 6.00	< 5.00	< 5.00	6.00 to 7.00	5.00 to 6.00	5.00 to 6.00	< 5.00	< 5.00	5.00 to 6.00	< 5.00	< 5.00
Cc1cn2nc(-c3cc4cn(C5CCNCC5)nc4s3)cc(C)c2n1 [Compound 162, 4-(5-{2,8-dimethylimidazo[1,2-b]pyridazin-6-yl}thieno[2,3-c]pyrazol-2-yl)piperidine]	6.00 to 7.00	6.00 to 7.00	6.00 to 7.00	6.00 to 7.00	> 7.00	> 7.00	5.00 to 6.00	6.00 to 7.00	6.00 to 7.00	6.00 to 7.00	6.00 to 7.00	6.00 to 7.00
Cc1cc(-c2nc3cn(C4CCNCC4)nc3s2)cc2cn(C)nc12 [Compound 1101]	6.00 to 7.00	6.00 to 7.00	> 7.00	> 7.00	> 7.00	> 7.00	6.00 to 7.00	> 7.00	6.00 to 7.00	6.00 to 7.00	6.00 to 7.00	6.00 to 7.00
Cc1nc2cc(O)c(-c3nc4cn(C5CCNCC5)nc4s3)cc2o1 [Compound 1104]	5.00 to 6.00	6.00 to 7.00	6.00 to 7.00	6.00 to 7.00	> 7.00	> 7.00	5.00 to 6.00	6.00 to 7.00	5.00 to 6.00	5.00 to 6.00	5.00 to 6.00	5.00 to 6.00
COc1c(-c2cc3cn(C4CCNCC4)nc3s2)nn2cc(C)nc(C)c12 [Compound 219, 4-(5-{3-methoxy-4,6-dimethylpyrazolo[1,5-a]pyrazin-2-yl}thieno[2,3-c]pyrazol-2-yl) piperidine]	< 5.00	< 5.00	< 5.00	< 5.00	5.00 to 6.00	< 5.00	5.00 to 6.00	< 5.00	< 5.00	< 5.00	< 5.00	< 5.00
Cc1cn2nc(-n3cc4cc(C5CCNCC5)sc4n3)cc2c(C)n1 [Compound 164]	5.00 to 6.00	5.00 to 6.00	5.00 to 6.00	5.00 to 6.00	5.00 to 6.00	5.00 to 6.00	5.00 to 6.00	5.00 to 6.00	5.00 to 6.00	5.00 to 6.00	5.00 to 6.00	5.00 to 6.00
CCN1CCC(n2cc3cc(-c4cc(F)c5nn(C)cc5c4)sc3n2)CC1 [Compound 149, 5-[2-(1-ethylpiperidin-4-yl)thieno[2,3-c]pyrazol-5-yl]-7-fluoro-2-methylindazole]	6.00 to 7.00	> 7.00	> 7.00	> 7.00	> 7.00	> 7.00	6.00 to 7.00	6.00 to 7.00	6.00 to 7.00	6.00 to 7.00	6.00 to 7.00	6.00 to 7.00
Cn1cc2cc(-c3cc4cn(C5CCNCC5)nc4s3)ccc2n1 [Compound 207]	5.00 to 6.00	6.00 to 7.00	6.00 to 7.00	6.00 to 7.00	> 7.00	> 7.00	5.00 to 6.00	6.00 to 7.00	5.00 to 6.00	5.00 to 6.00	5.00 to 6.00	5.00 to 6.00
Cc1cc(-c2cc3cn(C4CCNCC4)nc3s2)cc2cn(C)nc12 [Compound 225]	6.00 to 7.00	> 7.00	> 7.00	> 7.00	> 7.00	> 7.00	6.00 to 7.00	> 7.00	6.00 to 7.00	6.00 to 7.00	6.00 to 7.00	6.00 to 7.00
